Reference: ChEMBL document CHEMBL1148076, “Cucurbitacins: differential cytotoxicity, dereplication and first isolation from Gonystylus keithii” (1994)

Columns and labels:
Assay type in all cases: functional
U-251 = experiment: Growth inhibition of human U251 cells
Malme-3M = experiment: Growth inhibition of human MALME-3M cells
UACC-257 = experiment: Growth inhibition of human UACC257 cells
OVCAR-3 = experiment: Growth inhibition of human OVCAR-3 cells
DU-145 = experiment: Growth inhibition of human DU145 cells
786-0 = experiment: Growth inhibition of human 786-0 cells
SR = experiment: Growth inhibition of human SR cells
SK-MEL-28 = experiment: Growth inhibition of human SK-MEL-28 cells
[1] = Growth inhibition of human […] cells
NCI/ADR-RES = experiment: Growth inhibition of human NCI/ADR-RES cells
M14 = experiment: Growth inhibition of human M14 cells
IGROV-1 = experiment: Growth inhibition of human IGROV1 cells
BT-549 = experiment: Growth inhibition of human BT549 cells
HCT-116 = experiment: Growth inhibition of human HCT116 cells
HT-29 = experiment: Growth inhibition of human HT-29 cells
SK-MEL-5 = experiment: Growth inhibition of human SK-MEL-5 cells
NCI-H522 = experiment: Growth inhibition of human NCI-H522 cells
PC-3 = experiment: Growth inhibition of human PC3 cells
SK-OV-3 = experiment: Growth inhibition of human SKOV3 cells
OVCAR-5 = experiment: Growth inhibition of human OVCAR5 cells
NCI-H460 = experiment: Growth inhibition of human NCI-H460 cells
CAKI-1 = experiment: Growth inhibition of human Caki1 cells
MOLT-4 = experiment: Growth inhibition of human MOLT4 cells
OVCAR-8 = experiment: Growth inhibition of human OVCAR8 cells
HL-60(TB) = experiment: Growth inhibition of human HL-60(TB) cells
LOX IMVI = experiment: Growth inhibition of human LOXIMVI cells
COLO 205 = experiment: Growth inhibition of human COLO205 cells
HOP-62 = experiment: Growth inhibition of human HOP62 cells
ACHN = experiment: Growth inhibition of human ACHN cells
SNB-19 = experiment: Growth inhibition of human SNB19 cells
[2] = read-out: pLC50 (the source's name) (converted)

Molecule `CC(=O)OC(C)(C)/C=C/C(=O)[C@](C)(O)[C@H]1[C@H](O)C[C@@]2(C)[C@@H]3CC=C4[C@@H](C=C(O)C(=O)C4(C)C)[C@]3(C)C(=O)C[C@]12C` [CUCURBITACIN E] has a CC50 (U-251; [2]) of 3.47 µM, a TGI (U-251; read-out: pTGI (converted)) of 646 nM and a CC50 (Malme-3M; [2]) of 4.37 µM. It also gave a TGI (Malme-3M; read-out: pTGI (converted)) of 79.4 nM, a CC50 (UACC-257; [2]) of 11 µM and a TGI (UACC-257; read-out: pTGI (converted)) of 1200 nM. It also gave a CC50 (OVCAR-3; [2]) of 3.72 µM, a TGI (OVCAR-3; read-out: pTGI (converted)) of 83.2 nM and a CC50 (DU-145; [2]) of 12.9 µM. The TGI (DU-145; read-out: pTGI (converted)) was 2090 nM, the CC50 (786-0; [2]) was 4.07 µM and the TGI (786-0; read-out: pTGI (converted)) was 129 nM. It also gave a CC50 (SR; [2]) of 34.7 µM, a TGI (SR; read-out: pTGI (converted)) of 14.1 µM and a CC50 (SK-MEL-28; [2]) of 4.17 µM. The TGI (SK-MEL-28; read-out: pTGI (converted)) was 77.6 nM, the CC50 [1, 2] was 34.7 µM and the TGI ([1]; read-out: pTGI (converted)) was 8.13 µM. The CC50 (NCI/ADR-RES; [2]) was 33.9 µM, the TGI (NCI/ADR-RES; read-out: pTGI (converted)) was 8.13 µM and the CC50 (M14; [2]) was 6.76 µM. It also gave a TGI (M14; read-out: pTGI (converted)) of 646 nM, a CC50 (IGROV-1; [2]) of 3.89 µM and a TGI (IGROV-1; read-out: pTGI (converted)) of 19.9 nM. It also gave a CC50 (BT-549; [2]) of 151 nM, a TGI (BT-549; read-out: pTGI (converted)) of 12.9 nM and a CC50 (HCT-116; [2]) of 1820 nM. The TGI (HCT-116; read-out: pTGI (converted)) was 372 nM, the CC50 (HT-29; [2]) was 10 µM and the TGI (HT-29; read-out: pTGI (converted)) was 1820 nM. The CC50 (SK-MEL-5; [2]) was 759 nM, the TGI (SK-MEL-5; read-out: pTGI (converted)) was 120 nM and the CC50 (NCI-H522; [2]) was 3.31 µM. It also gave a TGI (NCI-H522; read-out: pTGI (converted)) of 81.3 nM, a CC50 (PC-3; [2]) of 6.76 µM and a TGI (PC-3; read-out: pTGI (converted)) of 257 nM. For the same molecule, the CC50 (SK-OV-3; [2]) was 12 µM, the TGI (SK-OV-3; read-out: pTGI (converted)) was 550 nM and the CC50 (OVCAR-5; [2]) was 18.2 µM. For the same molecule, the TGI (OVCAR-5; read-out: pTGI) was 5.25 µM, the CC50 (NCI-H460; [2]) was 19.1 µM and the TGI (NCI-H460; read-out: pTGI (converted)) was 2190 nM. The CC50 (CAKI-1; [2]) was 79.4 nM, the TGI (CAKI-1; read-out: pTGI (converted)) was 20.9 nM and the CC50 (MOLT-4; [2]) was 34.7 µM. For the same molecule, the TGI (MOLT-4; read-out: pTGI (converted)) was 15.1 µM, the CC50 (OVCAR-8; [2]) was 15.1 µM and the TGI (OVCAR-8; read-out: pTGI (converted)) was 2290 nM. It also gave a CC50 (HL-60(TB); [2]) of 34.7 µM, a TGI (HL-60(TB); read-out: pTGI (converted)) of 6.61 µM and a CC50 (LOX IMVI; [2]) of 53.7 nM. It also gave a TGI (LOX IMVI; read-out: pTGI (converted)) of 19.1 nM, a CC50 (COLO 205; [2]) of 17 µM and a TGI (COLO 205; read-out: pTGI (converted)) of 5.75 µM. The CC50 (HOP-62; [2]) was 6.92 µM, the TGI (HOP-62; read-out: pTGI (converted)) was 309 nM and the CC50 (ACHN; [2]) was 2510 nM. For the same molecule, the TGI (ACHN; read-out: pTGI (converted)) was 141 nM, the CC50 (SNB-19; [2]) was 1510 nM and the TGI (SNB-19; read-out: pTGI (converted)) was 209 nM.
